Tests used:
Smo = system: Smo; set-up: method as in PMID 32690258; conditions: preliminary studies; cited from earlier work
[1] = Metabolic stability in mouse liver microsomes (MouLM); assay type: in vitro ADME, KM mice
Description: A total of 450 μL liver microsomes from mice, rat, dog, monkey, and human were spiked with 0.5 μL of TPB15 solution and pre-incubated in a water bath at 37 °C for 10 min. Following this, 50 μL of NADPH were added to initiate the reaction. The concentrations of each substance in the incubation system are detailed in Table 1. After initiating the metabolic reaction, 50 μL aliquots were removed at incubation times of 0, 5, 15, 30, 45, 60, and 90 min and transferred to 150 μL of icy methanol solution containing the internal standard to terminate the reaction. The mixtures were swirled for 2 min and then centrifuged at 14,800 rpm at 4 °C for 10 min. […] Three samples were prepared in parallel at each time point. Additionally, both a positive control group and a blank control group were established. In the positive control group, substrate testosterone was incubated with liver microsomes from mice, rat, dog, monkey, and human. The concentrations of substrate testosterone were measured at 0 and 90 min, and the changes in concentration before and after incubation were compared to confirm the activity of the liver microsomes. The blank control group included one drug-containing inactivated liver microsome sample for each species. The metabolic stability parameters, including in vitro elimination half-life (T1/2) and in vitro intrinsic clearance rate (CLint), were calculated based on this graph using the following formulas: in vitro elimination half-life (T1/2) = −0.693/k and in vitro intrinsic clearance rate (CLint) = (0.693 × incubation medium (mL))/(liver microsomes (mg) × T1/2).

Stability in mice plasma = assay type: in vitro ADME, KM mice; conditions: 37 °C, 453 μg/L
Description: (§1) A total of 696.5 μL of plasma from each species (healthy mice, rat, dog, monkey, and human) were spiked with 3.5 μL of TPB15 stock solution ([…] in DMSO), resulting in a final TPB15 concentration of 453 μg/L in plasma. The mixture was then aliquoted into three tubes, each with a volume of 200 μL, maintaining a final DMSO concentration of 0.5%. After incubation in a water bath at 37 °C for 0, 30, 60, 90, and 120 min, 100 µL samples were transferred into EP tubes. Subsequently, 10 µL of internal standard working solution were added, followed by vortex mixing. Then, 500 µL of ethyl acetate were added, and the mixture was vortexed again before being centrifuged at 14,800 rpm at 4 °C for 10 min. A total of 400 µL of the supernatant were transferred into a new EP tube and placed in a vacuum concentrator (Bionoon-VAC2) (Bionoon Biotech, Shanghai, China) to dry for 1 h. The dried residue was reconstituted with 100 µL of mobile phase, vortex mixed thoroughly, and centrifuged again at 14,800 rpm at 4 °C for 10 min. A volume of 5 µL of the supernatant was then taken for LC-MS/MS analysis to determine the drug concentration. Additionally, a blank control group was established, in which PBS buffer was used in place of blank plasma in the incubation system.

[2] = Stability in monkey plasma; assay type: in vitro ADME, cynomolgus monkey; conditions: 37 °C, 453 μg/L
Description: as §1

[3] = system: normal mammary epithelial cells (MCF10A); set-up: method as in PMID 32690258; conditions: read-out: half-maximal inhibitory concentration (IC50) on normal mammary epithelial cells (MCF10A); cited from earlier work
[4] = set-up: method as in PMID 39158678; conditions: pharmacokinetic studies in rats; cited from earlier work
[5] = Metabolite identification in human liver microsomes; assay type: in vitro ADME; conditions: metabolite +16 Da, seen at 45 and 90 min, not at 0 min
Description: A total of 450 μL of human liver microsomes were spiked with 0.5 μL of the substrate TPB15 and incubated in a water bath at 37 °C for 10 min. The reaction was initiated by adding 50 μL of NADPH. Following incubation, 50 μL of the reaction mixture were transferred to 150 μL of ice-cold methanol to terminate the reaction. The mixture was then centrifuged at 14,800 rpm at 4 °C for 10 min. A volume of 5 μL of the supernatant was collected for analysis using a QTRAP 4000 mass spectrometer(AB Sciex, Framingham, MA, USA), with three parallel samples prepared for each time point. The primary mass spectrometry conditions were as follows: curtain gas at 30 psi, sprayer gas (GS1) at 50 psi, drier gas (GS2) at 50 psi, ion source temperature at 550 °C, and cluster-removal voltage at 100 V. The ion source (IS) spray voltage was set to 5500 V, with a focusing potential (FP) of 200 V, an entrance potential (EP) of 10 V, an exit potential (CXP) of 15 V, and a collision energy of 86 V for TPB15. Chromatographic separation was performed using an Agilent ZORBAX Stable Bond C18 column (50 mm × 2.1 mm i.d., 3.5 μm particle size) at a column temperature of 35 °C. The injection volume was 5 μL, and the elution was carried out in gradient mode. The mobile phase consisted of two components: mobile phase A (an aqueous solution with 0.1% formic acid) and mobile phase B (methanol). […]

In the case of `O=C(Nc1ccc(Cl)c(-c2nnc3c(Cl)cccn23)c1)c1ccc(Cl)nc1Cl` [TPB15], the “binding to the Smo target” value (Smo) is given as “effectively binds to the Smo target”, the “remaining proportion of TPB15 in liver microsomes” value ([1]; KM mice microsomes, 90 min, 5 μM TPB15, 0.5 mg/mL, NADPH 1 mM) is given as 80.0 ± 5.93% and the microsomal CLint at 5 μM ([1]; KM, mouse, liver microsomes, MouLM, 5 μM TPB15, 0.5 mg/mL microsomes, read-out: CLint (mL/min/mg), in vitro intrinsic clearance rate) is given as 0.0273 mL/min/mg. The “Remaining proportion of substrate TPB15 (%) KM mice” value (from here on “Remaining proportion … (%) KM mice”) (Stability in mice plasma; incubation 0 min) was 100.0 ± 0.7%, the “Remaining proportion … (%) KM mice” value (Stability in mice plasma; incubation 30 min) was 98.6 ± 0.9% and the “Remaining proportion … (%) KM mice” value (Stability in mice plasma; incubation 60 min) was 98.0 ±1.5%. For the same compound, the “Remaining proportion … (%) KM mice” value (Stability in mice plasma; incubation 90 min) was 97.1 ± 0.7%, the “Remaining proportion … (%) KM mice” value (Stability in mice plasma; incubation 120 min) was 98.0 ± 1.2% and the “Remaining proportion of substrate TPB15 (%) Cynomolgus monkey” value ([2]; incubation 0 min) was 100.0 ± 1.7%. The “Remaining proportion of substrate TPB15 (%) Cynomolgus monkey” value ([2]; incubation 30 min) was 98.2 ± 0.6%, the “Remaining proportion of substrate TPB15 (%) Cynomolgus monkey” value ([2]; incubation 60 min) was 96.3 ± 1.2% and the “Remaining proportion of substrate TPB15 (%) Cynomolgus monkey” value ([2]; incubation 90 min) was 99.3 ± 0.9%. For the same compound, the “Remaining proportion of substrate TPB15 (%) Cynomolgus monkey” value ([2]; incubation 120 min) was 98.3 ± 1.5%, the IC50 [3] was 169 µM and the half-life in rats [4] was “relatively long half-life”. For the same compound, the “metabolic reaction of TPB15 in human liver microsomes” value [5] was “oxidation”.

— publication PMC12030497, “Plasma Protein Binding, Biostability, Metabolite Profiling, and CYP450 Phenotype of TPB15 Across Different Species: A Novel Smoothened Inhibitor for TNBC Therapy” (Pharmaceutics, 2025)
